What was measured:
[1] = system: P388 leukemia; assay: Mouse tumor system P388 leukemia (murine P388 lymphocytic leukemia); assay type: in vivo
Description: (§1) A description of the antitumor tests, described herein, appears in the reference by R. I. Geran, N. H. Greenberg, M. M. MacDonald, A. M. Schumacher and B. J. Abbott, Cancer Chemother. Rep. Part 3, Vol. 3(2): 1-103 (1972).
(§2) ^a tumors were inoculated intraperitoneally (i.p.)
(§3) ^b compounds were administered i.p. everyday for 9 days starting on
(§4) the first day after tumor inoculation.
(§5) ^c Calculated from median survival times; Nos. in parentheses = No. o
(§6) cures/total No. of mice in group. Cured mice survive for at least 60 days

[2] = system: B16 melanoma; assay: Mouse tumor system B16 melanoma (NCI murine B16 melanoma test); assay type: in vivo
Description: as §1, §2, §3, §4, §5, §6

## Dolastatin 1
[1]; P388 leukemia inoculated i.p., compound i.p. every day for 9 days at optimal dose, from median survival times
  life span in percent of controls: 188% of controls
[1]; P388 leukemia, i.p. every day for 9 days starting first day after tumor inoculation
  optimal dose: 11 μg/kg/injection
[1]; murine P388 lymphocytic leukemia, intraperitoneal doses of 11 μg/kg/day
  life extension: 88%
[2]; B16 melanoma i.p., optimal dose i.p. daily for 9 days, cured mice survive at least 60 days
  No. of cures/total No. of mice in group: 3/10
[2]; B16 melanoma inoculated i.p., compound i.p. every day for 9 days at optimal dose, from median survival times
  life span in percent of controls: 240% of controls
[2]; B16 melanoma, i.p. every day for 9 days starting first day after tumor inoculation
  optimal dose: 11 μg/kg/injection
[2]; murine B16 melanoma, intraperitoneal dose of 11 μg/kg/day
  curative response: 30%

Source: patent US4414205A, “Cell growth inhibitory substances” (University Patents, Inc., priority 1981, dated 1983)
